Assay results from ChEMBL document CHEMBL1150278, “Thiocamptothecin” (J Med Chem, 2008).
The source made the active and inactive calls. The calls are words filed in the database; no cut-off is given here.

Experiments:
IGROV-1 [1] = assay: Cytotoxicity against human IGROV1 cells after 72 hrs; format: functional, cell-based; settings: IGROV-1, 72 h
IGROV-1 [2] = assay: Cytotoxicity against human IGROV1 cells after 1 hr; format: functional, cell-based; settings: IGROV-1, 1 h
NCI-H460 [3] = assay: Cytotoxicity against human H460 cells after 72 hrs; format: functional, cell-based; settings: NCI-H460, 72 h
HT-29 [4] = assay: Cytotoxicity against human mitoxantrone-resistant HT29 cells after 1 hr; format: functional, cell-based; settings: HT-29, 1 h
Homo sapiens = species: Homo sapiens; assay: Stimulation of human recombinant topoisomerase 1B-mediated SV40 DNA cleavage
NCI-H460 [5] = assay: Cytotoxicity against human H460 cells after 1 hr; format: functional, cell-based; settings: NCI-H460, 1 h
HT-29 [6] = assay: Cytotoxicity against human HT29 cells after 1 hr; format: functional, cell-based; settings: HT-29, 1 h

Compound: CC[C@@]1(O)C(=O)OCc2c1cc1n(c2=O)Cc2cc3ccccc3nc2-1 [CAMPTOTHECIN]
- IC50 (IGROV-1 [1]): 12 nM
- IC50 (IGROV-1 [2]): 1650 nM
- IC50 (NCI-H460 [3]): 6.2 nM

Compound: CC[C@@]1(O)C(=O)OCc2c1cc1n(c2=S)Cc2cc3ccccc3nc2-1
- IC50 (HT-29 [4]): 110 nM
- IC50 (IGROV-1 [1]): 4.67 nM
- IC50 (IGROV-1 [2]): 220 nM
- Activity (Homo sapiens): Active
- IC50 (NCI-H460 [3]): 7.4 nM
- IC50 (NCI-H460 [5]): 140 nM
- IC50 (HT-29 [6]): 170 nM
